Like-named read-outs stand apart in the source and are kept apart here. Marks after values point to notes of the source that are not given here.
Legend:
[1] = system: ABCB6; assay: ABCB6 mRNA expression (real-time PCR); type: cell-based, human; settings: A2780/DOX
Experimental: (§1) The A2780/DOX cell line was seeded into 5 cm Petri dishes with DMEM medium at 1 × 10^5 cell/mL. […] After 48 h of treatment, the cells were washed with PBS and harvested using the standard trypsin-EDTA procedure. The harvested cells were centrifuged (3200× g; 10 min, 4 °C). The supernatant was discarded, and the pellets were washed with 1.5 mL of cooled PBS (5400× g; 10 min, 4 °C). The washing step was repeated with 1 mL of PBS and the cells were centrifuged again (10,000× g; 3 min, 4 °C). Afterwards, the pellets were resuspended in 1 mL of Trizol (Invitrogen, Carlsbad, CA, USA) and transferred into pre-cooled RNase-free microfuge tubes. The samples were stored at −80 °C.
(§2) A Quant-iT RiboGreen RNA Assay Kit (Invitrogen) was used to determine the RNA concentration using the Infinite M200 plate reader (Tecan, Männedor, Switzerland). The cDNA was prepared from 0.5 µg of total RNA using a RevertAid First Strand Synthesis cDNA Kit (MBI Fermentas, Vilnius, Lithuania). The amplification of the ubiquitin C gene fragment was used to determine the quality of cDNA.
(§3) The experiment was performed using the ViiA7 Real-Time polymerase chain reaction (PCR) System (Life Technologies, Camarillo, CA, USA) with a 384-well block. Before quantitative real-time PCR, the master mix was prepared by mixing 2 µL of 8 × diluted cDNA, 1.75 µL of RNase free water, 1 µL of 5 × HotFIREPol Probe quantitative PCR Mix Plus (Solis Biodyne, Tartu, Estonia) and 0.25 µL of specific 20 × TaqMan Gene Expression Assay (Life Technologies), giving 5 µL of final reaction volume. Cycling parameters were: initial hold at 50 °C for 2 min and denaturation at 95 °C for 10 min, followed by 45 cycles consisting of denaturation at 95 °C for 15 s and annealing/extension at 60 °C for 1 min. After each extension phase, the fluorescence values were acquired. Duplicate samples were used for measurement and samples with a standard deviation of duplicates > 1.0 cycle threshold (Ct) were re-analyzed. The real time PCR procedure was maintained according to MIQE (Minimum information for publication of quantitative real-time PCR experiments) guidelines. The software REST 2009 (Qiagen, Hilden, Germany) served to compare relative transcript levels of genes in the cell line.

[2] = system: ABCA2; assay: ABCA2 mRNA expression (real-time PCR); type: cell-based, human; settings: A2780/DOX, 10 µM combined with doxorubicin at IC25, 48 h
Experimental: (§4) The A2780/DOX cell line was seeded into 5 cm Petri dishes with DMEM medium at 1 × 10^5 cell/mL. After 24 h, the dishes were washed with PBS and new DMEM medium supplemented with doxorubicin (at concentration equal to IC25) and samples (10 µM) were added. After 48 h of treatment, the cells were washed with PBS and harvested using the standard trypsin-EDTA procedure. The harvested cells were centrifuged (3200× g; 10 min, 4 °C). The supernatant was discarded, and the pellets were washed with 1.5 mL of cooled PBS (5400× g; 10 min, 4 °C). The washing step was repeated with 1 mL of PBS and the cells were centrifuged again (10,000× g; 3 min, 4 °C). Afterwards, the pellets were resuspended in 1 mL of Trizol (Invitrogen, Carlsbad, CA, USA) and transferred into pre-cooled RNase-free microfuge tubes. The samples were stored at −80 °C.
as §2, §3

[3] = system: nitric oxide (NO) production by LPS-stimulated macrophages (RAW 264.7); assay: NO production by LPS-stimulated macrophages (Griess); type: cell-based, mouse; settings: for IC50: Mus musculus, read-out: NO Production, concentration necessary to halve NO production (IC50)
Experimental: Immunomodulatory effect of tested compounds was determined as their ability to decrease nitric oxide (NO) production by LPS-stimulated macrophages (RAW 264.7, Sigma-Aldrich). Briefly, the cells were seeded into the 96-well plate at a density of 1 × 10^6 cells/mL in DMEM medium (supplemented with 2 mM L-glutamine and 1 × antibiotic antimycotic solution). After 48 h, the cells were washed with PBS. The MEM medium enriched with LPS (1 µg/mL) was added to the wells, together with the samples in the concentration range of 6.25–100 µM at a final volume of 100 µL. Indomethacin, a non-steroidal anti-inflammatory drug, was tested as a positive control in the concentration range 6.25–100 µM. After 24 h, the medium was used for the quantification of NO and inflammatory cytokines.
After 15 min, absorbance was recorded at 540 nm.

[4] = system: ABCC1 (MRP1); assay: ABCC1 mRNA expression (real-time PCR); type: cell-based, human
Experimental: as §4, §2, §3

[5] = system: TNF-α; assay: TNF-α release by LPS-induced macrophages (ELISA); type: cell-based, mouse; settings: for IC50: Mus musculus
Experimental: To determine the level of inflammatory cytokine TNF-α, macrophages were pre-cultivated with the tested compounds (12.5–50 µM) for 24 h. Thereafter, the plates were washed with PBS and new MEM medium enriched with LPS (1 µg/mL) was added to the wells. After 2 h of incubation, the plates were centrifuged (1000× g; 10 min, 4 °C) and then the medium was removed and frozen to −80 °C. Prior to the detection, the samples were diluted in ELISA diluent in a 1:10 ratio. […]

[6] = system: ABCD3; assay: ABCD3 mRNA expression (real-time PCR); type: cell-based, human; settings: A2780/DOX
Experimental: as §4, §2, §3

[7] = system: ABCB10; assay: ABCB10 mRNA expression (real-time PCR); type: cell-based, human; settings: A2780/DOX
Experimental: as §1, §2, §3

[8] = system: IL-6; assay: IL-6 release by LPS-induced macrophages (ELISA); type: cell-based, mouse; settings: for IL-6 (pg/mL): untreated LPS control 1148 ± 35; for IC50: Mus musculus, RAW264.7, RAW 264.7, LPS + compound 6 h, read-out: IL-6, concentration necessary to halve the release (IC50)
Experimental: To determine the level of inflammatory cytokine IL-6, macrophages were cultivated with LPS (1 µg/mL) and the tested compounds (7–50 µM) for 6 h. After incubation, the plates were centrifuged (1000× g; 10 min, 4 °C) and then the medium was removed and frozen to −80 °C. Prior to the detection, the samples were diluted in ELISA diluent in a 1:10 ratio. Production of the cytokine was determined by uncoated ELISA performed according to the manufacturer’s instructions.

[9] = 10 µM combined with doxorubicin at IC25, 48 h
[10] = A2780/DOX, 10 µM combined with doxorubicin at IC25, 48 h
[11] = RAW264.7, read-out: TNF-α, concentration necessary to halve the release (IC50)
[12] = compound 12.5 µM, untreated LPS control 2954 ± 92
[13] = compound 25 µM, untreated LPS control 2954 ± 92
[14] = compound 50 µM, untreated LPS control 2954 ± 92
[15] = 10 µM, 48 h, without doxorubicin
[16] = RAW264.7, RAW 264.7, LPS 1 µg/mL, 24 h
[17] = RAW264.7, RAW 264.7, 24 h pre-cultivation, then LPS 2 h, read-out: TNF-α, concentration necessary to halve the release (IC50)
[18] = A2780/DOX, 10 µM, 48 h, without doxorubicin

Row | SMILES | ABCB6 Expression Difference [1, 9] | ABCA2 Expression Difference [2] | IC50 ([3]; RAW264.7, 24 h) [µM] | ABCC1 Expression Difference [4, 10] | IC50 [5, 11] [µM] | TNF-α (pg/mL) [5, 12] | TNF-α (pg/mL) [5, 13] | TNF-α (pg/mL) [5, 14] | ABCD3 Expression Difference [6, 9] | ABCB10 Expression Difference [7, 9] | ABCB10 Expression Difference [7, 15] | IL-6 (pg/mL) ([8]; compound 7 µM) | IL-6 (pg/mL) ([8]; compound 15 µM) | IL-6 (pg/mL) ([8]; compound 50 µM) | ABCD3 Expression Difference [6, 15] | IC50 [3, 16] [µM] | IC50 [5, 17] [µM] | IC50 [8] [µM] | ABCB6 Expression Difference [1, 15] | ABCC1 Expression Difference [4, 18] | other results
1 | COc1cc([C@H]2Oc3cc(-c4oc5cc(O)cc(O)c5c(=O)c4O)ccc3O[C@@H]2CO)ccc1O [Dehydrosilybin A, 2,3-dehydrosilybin A] | 1.149 | 1.105 | 23.2 ± 1.4 | 0.907 | 20.7 ± 0.4 | 2338 ± 63 ^ab pg/mL | 777 ± 28 ^a pg/mL | 0 ± 0 ^a pg/mL | 1.043 | 1.020 | 1.236 | 292 ± 15 ^a pg/mL | 79 ± 8 ^a pg/mL | 0 ± 0 ^a pg/mL | – | – | – | – | – | – | decrease of release of TNF-α ([5]; compound 25 µM, from 2954 pg/mL to 777 pg/mL): ~4 times; TNF-α ([5]; compound 25 µM, untreated LPS control 2954 ± 92, listed as dehydrosilybin A): 777 pg/mL; TNF-α (pg/mL) ([5]; compound 50 µM, untreated LPS control 2954 ± 92, listed as dehydrosilybin A): under the detection limit of the ELISA assay; IL-6 (pg/mL) ([8]; compound 50 µM, listed as dehydrosilybin A): under the detection limit of the ELISA assay; IL-6 modulation effect higher in comparison with its diastereomeric mixture ([8]; vs dehydrosilybin AB): approximately 70%
2 | COc1cc(C2Oc3cc(-c4oc5cc(O)cc(O)c5c(=O)c4O)ccc3OC2CO)ccc1O (stereo not shown) [Dehydrosilybin AB, 2,3-dehydrosilybin] | 1.262 | 1.046 | 19.1 ± 0.2 | 1.301 | 26.7 ± 0.1 | 2617 ± 118 ^b pg/mL | 2364 ± 108 ^c pg/mL | 0 ± 0 ^a pg/mL | 1.288 | 1.119 | 1.589 | 997 ± 41 ^d pg/mL | 441 ± 19 ^d pg/mL | 0 ± 0 ^a pg/mL | 1.545 | – | – | – | – | – | TNF-α (pg/mL) ([5]; compound 50 µM, untreated LPS control 2954 ± 92, listed as dehydrosilybin AB): under the detection limit of the ELISA assay; IL-6 (pg/mL) ([8]; compound 50 µM, listed as dehydrosilybin AB): under the detection limit of the ELISA assay
3 | COc1cc([C@@H]2Oc3cc(-c4oc5cc(O)cc(O)c5c(=O)c4O)ccc3O[C@H]2CO)ccc1O [Dehydrosilybin B, 2,3-dehydrosilybin B] | 1.343 | 1.078 | 31.3 ± 2.4 | 1.213 | 44.2 ± 0.3 | 2528 ± 171 ^b pg/mL | 2774 ± 84 ^d pg/mL | 982 ± 25 ^c pg/mL | 1.347 | 1.221 | 1.186 | 582 ± 19 ^c pg/mL | 301 ± 9 ^c pg/mL | 122 ± 3 ^b,c pg/mL | – | – | – | – | – | – | immunomodulation effect lower compared to its diastereomeric mixture ([3]; NO production, vs dehydrosilybin AB): approximately 40%
4 | COc1cc([C@H]2Oc3cc([C@H]4Oc5cc(O)cc(O)c5C(=O)[C@@H]4O)ccc3O[C@@H]2CO)ccc1O [Silybin A, silybin A] | 1.665 | 1.239 | – | 1.711 | – | 2092 ± 48 ^a pg/mL | 1476 ± 39 ^b pg/mL | 415 ± 4 ^b pg/mL | 1.637 | 1.060 | 1.136 | 422 ± 42 ^b pg/mL | 271 ± 15 ^c pg/mL | 125 ± 16 ^c pg/mL | – | 26.7 ± 1.6 | 29.9 ± 1.35 | 8.4 ± 0.3 | – | – | –
5 | COc1cc(C2Oc3cc([C@H]4Oc5cc(O)cc(O)c5C(=O)[C@@H]4O)ccc3OC2CO)ccc1O (stereo partly shown) [Silybin AB, silybin] | 1.527 | 1.207 | – | 1.640 | – | 2497 ± 37 ^b pg/mL | 2425 ± 145 ^c pg/mL | 1177 ± 75 ^d pg/mL | 1.560 | 1.069 | 2.204 | 311 ± 18 ^a pg/mL | 173 ± 5 ^b pg/mL | 83 ± 4 ^b pg/mL | 2.181 | 23.6 ± 1.2 | 38.7 | 4.8 ± 0.3 | 1.838 | 2.521 | –
6 | COc1cc([C@@H]2Oc3cc([C@H]4Oc5cc(O)cc(O)c5C(=O)[C@@H]4O)ccc3O[C@H]2CO)ccc1O [Silybin B, silybin B] | – | 0.903 | – | – | – | 2441 ± 68 ^b pg/mL | 2375 ± 64 ^c pg/mL | 1792 ± 63 ^e pg/mL | – | 0.835 | 0.329 | 297 ± 23 ^a pg/mL | 166 ± 6 ^b pg/mL | 37 ± 2 ^a pg/mL | 0.337 | 26 ± 3 | 53.3 ± 0.7 | 5.2 ± 0.2 | 0.396 | 0.413 | ABCB6 Treated vs. Untreated [1, 15]: DOWN; ABCA2 Treated vs. Untreated [2]: DOWN; downregulation of ABCC1 (MRP1) expression [4, 15]: 59%; ABCC1 Treated vs. Untreated [4, 18]: DOWN; ABCD3 Treated vs. Untreated [6, 15]: DOWN; ABCB10 Treated vs. Untreated [7, 9]: DOWN; ABCB10 Treated vs. Untreated [7, 15]: DOWN
